What was measured:
DAOY-SLCs = assay: Western Blot of H3K27me3 and PCNA in DAOY-SLCs; type: cell-based; details: 5 μM, 48 h
Protocol: (§1) To evaluate cell viability cells were plated at a density of 5×10^3 cells/well in 96-well plates and were incubated with MTS solution (CellTiter 96® AQueous One Solution Promega).
(§2) Western blots were performed according to standard procedures. Briefly, protein lysates were prepared using RIPA buffer with fresh protease inhibitors. Lysates were separated on SDS polyacrylamide gels. Proteins were transferred on nitrocellulose membrane (0.45 micron) (PerkinElmer). Membranes were blocked for 1 h at room temperature in 5% nonfat dry milk and incubated overnight at 4°C with antibodies against EZH2 (4905S Cell signaling), H3K27me3 (07-449 Millipore), PCNA (2586 Cell signaling), ACTIN (I-19 sc-1616; Santa Cruz Biotechnology), GAPDH (ab9484, Abcam), cleaved CSP-3 (D-175 9661S; Cell Signaling) and H3 (ab1971, Abcam). HRP-conjugated secondary antibodies (Santa Cruz Biotechnology) were used in combination with enhanced chemiluminescence (ECL Amersham).

MLL1 complex = MLL1 complex (Homo sapiens, UniProt Q03164); assay: Methyltransferase panel: MLL1 complex; type: biochemical; details: substrate nucleosomes
Protocol: (§3) MC3629 was tested in the cell free enzymatic assay (EZH2/PRC2) in 10-dose IC50 mode with 2-fold serial dilution starting from 400 μM solution, using various histone substrates (histone H3/H4 octamer, histone H3/H4 tetramer, histone H3, and core histone) and SAM as the co-substrate. […] (Figure 2B, and Supplementary Figure 2).
(§4) The appropriate methyltransferase (MT) substrate (0.05 mg/ml core histone for EZH1 complex, 0.05 mg/ml oligonucleosomes for DOT1L, 5 μM histone H3 (1-21) peptide for G9a, 0.05 mg/ml nucleosomes for MLL1 complex, 0.05 mg/ml core histone for SET7/9, 5 μM histone H4 for PRMT1, and 0.001 mg/ml poly(dI-dC) for DNMT1) was added in freshly prepared Reaction Buffer (50 mM Tris-HCl (pH 8.5), 5 mM MgCl2, 50 mM NaCl, 0.01% Brij35, 1 mM DTT, 1% DMSO). The MT enzyme was delivered into the substrate solution and the mixture was mixed gently. Afterwards, the tested compound dissolved in DMSO was delivered into the enzyme/substrate reaction mixture by using Acoustic Technology (Echo 550, LabCyte Inc. Sunnyvale, CA) in nanoliter range, and 1 μM ^3H-SAM was also added into the reaction mixture to initiate the reaction. The reaction mixture was incubated for 1 h at 30°C and then it was delivered to filter-paper for detection. The data were analyzed using Excel and GraphPad Prism software for IC50 curve fits (for EZH1 complex).

hMB-SLCs [1] = assay: Cell viability, MTS assay, hMB-SLCs; type: cell-based, human
Protocol: In both cell lines, we determined the lowest useful dose of MC3629 (5 μM) and the minimum effective time (48 h) (Figure 2D, 2E and Supplementary Figure 4A and 4B for data at 24 and 72 h). We next evaluated the performance of MC3629 on MB-SLCs in terms of cell viability in regards to other EZH2i in use, confirming the dose selection (Supplementary Figure 4C).
as §1

EZH1 complex = EZH1 complex (Homo sapiens, UniProt Q92800); assay: Methyltransferase panel: EZH1 complex; type: biochemical
Chain of EZH1 complex (Q92800 whole entry): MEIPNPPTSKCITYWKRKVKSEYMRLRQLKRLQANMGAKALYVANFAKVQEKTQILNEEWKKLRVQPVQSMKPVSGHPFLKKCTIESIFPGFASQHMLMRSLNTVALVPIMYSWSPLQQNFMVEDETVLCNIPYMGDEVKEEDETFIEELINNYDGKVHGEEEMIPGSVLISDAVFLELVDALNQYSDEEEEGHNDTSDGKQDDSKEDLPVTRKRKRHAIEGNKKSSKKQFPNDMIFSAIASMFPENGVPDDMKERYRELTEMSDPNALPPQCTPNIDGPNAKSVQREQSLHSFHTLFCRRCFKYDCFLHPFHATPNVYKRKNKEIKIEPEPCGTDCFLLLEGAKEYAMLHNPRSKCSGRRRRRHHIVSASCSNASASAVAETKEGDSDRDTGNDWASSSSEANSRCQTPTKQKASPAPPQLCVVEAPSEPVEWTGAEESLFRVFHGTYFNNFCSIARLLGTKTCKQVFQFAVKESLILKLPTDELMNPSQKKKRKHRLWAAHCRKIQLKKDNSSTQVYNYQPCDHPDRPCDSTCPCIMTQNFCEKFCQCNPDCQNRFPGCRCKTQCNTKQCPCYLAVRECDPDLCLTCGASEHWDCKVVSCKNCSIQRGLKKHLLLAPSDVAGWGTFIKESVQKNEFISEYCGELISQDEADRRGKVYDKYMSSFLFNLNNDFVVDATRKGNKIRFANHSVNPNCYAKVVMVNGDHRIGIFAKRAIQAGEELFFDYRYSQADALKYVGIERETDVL
Chain of EZH1 complex (O75530 whole entry partner): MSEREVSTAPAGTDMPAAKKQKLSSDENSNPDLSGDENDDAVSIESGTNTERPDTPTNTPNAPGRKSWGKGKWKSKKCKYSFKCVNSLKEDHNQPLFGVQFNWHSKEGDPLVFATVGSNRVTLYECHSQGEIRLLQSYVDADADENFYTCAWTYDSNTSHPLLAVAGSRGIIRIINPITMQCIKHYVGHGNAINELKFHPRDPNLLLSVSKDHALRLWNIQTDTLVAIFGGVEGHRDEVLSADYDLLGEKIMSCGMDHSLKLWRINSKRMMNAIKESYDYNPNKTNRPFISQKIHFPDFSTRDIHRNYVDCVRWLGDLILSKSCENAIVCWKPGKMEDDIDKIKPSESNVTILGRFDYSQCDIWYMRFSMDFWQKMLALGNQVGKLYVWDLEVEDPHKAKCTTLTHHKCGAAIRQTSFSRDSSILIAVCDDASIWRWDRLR
Chain of EZH1 complex (Q15022 whole entry partner): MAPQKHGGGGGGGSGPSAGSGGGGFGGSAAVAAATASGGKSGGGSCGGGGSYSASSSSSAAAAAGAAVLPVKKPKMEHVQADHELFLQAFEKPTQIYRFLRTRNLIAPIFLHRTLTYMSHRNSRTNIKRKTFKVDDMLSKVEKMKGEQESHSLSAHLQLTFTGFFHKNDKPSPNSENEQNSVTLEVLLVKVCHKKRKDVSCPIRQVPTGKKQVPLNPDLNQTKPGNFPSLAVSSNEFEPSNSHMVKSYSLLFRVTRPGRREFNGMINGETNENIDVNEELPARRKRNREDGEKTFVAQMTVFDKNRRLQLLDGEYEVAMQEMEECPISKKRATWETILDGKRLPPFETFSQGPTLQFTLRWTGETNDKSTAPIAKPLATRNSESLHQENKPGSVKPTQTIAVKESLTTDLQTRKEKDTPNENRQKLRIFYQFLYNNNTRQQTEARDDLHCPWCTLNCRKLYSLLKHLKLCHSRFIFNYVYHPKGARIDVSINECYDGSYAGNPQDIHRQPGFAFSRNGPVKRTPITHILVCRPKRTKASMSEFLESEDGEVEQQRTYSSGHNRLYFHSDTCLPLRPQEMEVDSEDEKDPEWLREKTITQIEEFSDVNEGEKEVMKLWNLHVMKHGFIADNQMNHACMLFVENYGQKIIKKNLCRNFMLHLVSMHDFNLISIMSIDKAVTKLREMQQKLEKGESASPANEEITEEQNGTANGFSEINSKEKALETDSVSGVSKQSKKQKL
Chain of EZH1 complex (Q09028 whole entry partner): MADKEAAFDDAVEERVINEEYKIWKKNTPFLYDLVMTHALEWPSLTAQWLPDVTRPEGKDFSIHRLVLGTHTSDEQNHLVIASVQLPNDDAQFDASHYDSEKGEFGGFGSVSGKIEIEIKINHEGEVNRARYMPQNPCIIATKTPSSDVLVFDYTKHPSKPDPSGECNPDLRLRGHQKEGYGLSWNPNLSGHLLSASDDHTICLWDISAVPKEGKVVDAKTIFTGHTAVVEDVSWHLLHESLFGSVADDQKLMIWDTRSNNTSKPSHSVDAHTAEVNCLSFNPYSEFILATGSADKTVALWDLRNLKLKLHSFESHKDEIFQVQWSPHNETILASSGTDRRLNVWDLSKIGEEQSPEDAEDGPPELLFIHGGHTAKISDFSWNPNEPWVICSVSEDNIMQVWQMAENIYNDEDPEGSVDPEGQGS
Chain of EZH1 complex (Q6ZN18 whole entry partner): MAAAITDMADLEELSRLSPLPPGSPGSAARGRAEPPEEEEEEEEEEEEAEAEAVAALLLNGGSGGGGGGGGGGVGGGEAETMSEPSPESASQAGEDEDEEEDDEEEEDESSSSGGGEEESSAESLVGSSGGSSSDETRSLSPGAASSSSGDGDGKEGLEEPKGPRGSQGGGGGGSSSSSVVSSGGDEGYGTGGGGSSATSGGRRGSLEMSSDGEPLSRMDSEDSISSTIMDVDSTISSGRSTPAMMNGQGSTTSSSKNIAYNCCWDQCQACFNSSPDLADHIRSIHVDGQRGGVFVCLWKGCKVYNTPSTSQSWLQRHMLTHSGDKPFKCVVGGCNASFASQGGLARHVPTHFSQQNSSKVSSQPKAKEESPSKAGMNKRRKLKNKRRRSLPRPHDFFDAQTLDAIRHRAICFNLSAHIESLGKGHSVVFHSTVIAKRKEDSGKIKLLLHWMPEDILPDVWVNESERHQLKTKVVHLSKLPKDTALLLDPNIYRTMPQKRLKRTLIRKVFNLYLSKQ
Protocol: as §3, §4

DAOY cells = assay: Cell viability, MTS assay, DAOY cells; type: cell-based; details: 5 μM, after 48 h
Protocol: as §1

hMB-SLCs [2] = assay: Western Blot of H3K27me3, PCNA, cleaved caspase 3 in hMB-SLCs; type: cell-based, human; details: 5 μM, 48 h
Protocol: as §1, §2

hMB-SLCs [3] = assay: Self-renewal, clonogenic assay, hMB-SLCs; type: cell-based, human; details: 5 μM
Protocol: For self-renewal assessment, clonogenic assay was performed as previously described. Briefly: oncospheres were disaggregated with non-enzymatic cell dissociation buffer (Sigma) and cells were plated at clonal density (1-2 cells/mm^2) into 96-well plates and cultured for an appropriate number of days (7-15) until oncospheres were countable.

neural stem cells (NSC) = assay: Western Blot of H3K27me3 and PCNA in neural stem cells (non-transformed cells); type: cell-based; details: 5 μM, 48 h
Protocol: as §2

mMB-SLCs = assay: Western Blot of H3K27me3, PCNA, cleaved caspase 3 in mMB-SLCs; type: cell-based, mouse; details: 48 h
Protocol: Afterwards, we tested the ability of MC3629 (at 0.5, 5, and 25 μM) to inhibit the EZH2 enzymatic activity on a cell-based assay in vitro. The lower significant MC3629 dosage to decrease the H3K27me3 level in MB-SLCs was 5 μM (Figure 2C).
as §1, §2

[4] = PAMPA-BBB (porcine brain lipid extract artificial membrane); type: in vitro ADME
Protocol: Donor solution (500 μM or 250 μM) was prepared by diluting 10 or 5 mM DMSO compound stock solution using phosphate buffer (pH 7.4, 0.01 M). Filter membrane was coated with 5 μl of BBB-specific lipid solution prepared dissolving 16 mg of PBL (Avanti Lipids Polar, 141101P) in 600 μl of n-dodecane. Donor solution (150 μl) was added to each well of the filter plate. To each well of the acceptor plate 300 μl of solution (5% DMSO in phosphate buffer) were added. Each compound was tested in triplicate. The sandwich was incubated for 24 h at room temperature under gentle shaking. After the incubation time, the sandwich plates were separated and 250 μl of the acceptor plate were transferred to a UV quartz microtiter plate and measured by UV spectroscopy, using a Multiskan GO microplate spectrophotometer (Thermo Scientific) at 250−500 nm at step of 5 nm. Reference solutions (250 μl) were prepared diluting the sample stock solutions to the same concentration as that with no membrane barrier. The BBB permeability value Log Pe is determined applying the equation:
log Pe= log{C⋅(−ln(1−[drug]acceptor/[drug]equilibrium))},
where C=(VD⋅VA/(VD+VA)area⋅time)
In this equation, VA is the volume of the acceptor compartment (0.3 cm^3), VD is the donor volume (0.15 cm^3), area is the accessible filter area (0.24 cm^2), and time is the incubation time in seconds.

For Cc1cc(C)c(CNC(=O)c2cnn(-c3ccccc3)c2C)c(=O)[nH]1 [MC3629, N-((4,6-dimethyl-2-oxo-1,2-dihydropyridin-3-yl)methyl)-5-methyl-1-phenyl-1H-pyrazole-4-carboxamide], the “H3K27me3 and PCNA levels” value (DAOY-SLCs) was “down modulated”, the inhibition at 200 µM (MLL1 complex) was 20.7% and the “minimum effective time, cell viability” value (hMB-SLCs [1]) was 48 h. For the same molecule, the “cell viability, combination with shEZH2 versus shEZH2 alone” value (hMB-SLCs [1]; 5 μM, 48 h) was “did not display any additive effect”, the “lowest useful dose, cell viability” value (hMB-SLCs [1]; dose- and time-dependent experiments) was 5 µM and the inhibition at 200 µM (EZH1 complex; 200 μM, substrate histone H3/H4 octamer) was 62.4%. The IC50 (EZH1 complex; footnote of Supplementary Table 1) was 138 µM, the cell viability (DAOY cells) was “impaired cell viability” and the “H3K27me3 and PCNA protein levels” value (hMB-SLCs [2]) was “significantly impaired”. The “apoptosis, level of cleaved caspase 3” value (hMB-SLCs [2]) was “induced apoptosis”, the self-renewal (hMB-SLCs [3]) was “significantly reduced” and the “H3K27me3 and PCNA protein levels” value (neural stem cells (NSC)) was “did not observe any effects”. The “H3K27me3 and PCNA protein levels” value (mMB-SLCs; mMB-SLCs, 5 μM) was “significantly impaired”, the “apoptosis, level of cleaved caspase 3” value (mMB-SLCs; mMB-SLCs, 5 μM) was “induced apoptosis” and the “lower significant dosage to decrease the H3K27me3 level” value (mMB-SLCs; tested at 0.5, 5, 25 μM) was 5 µM. For the same molecule, the Papp at 24 h ([4]; Pe in cm/s, pH 7.4, 24 h, room temperature, triplicate, read-out: Log Pe (converted)) was 4.68 ×10⁻⁶ cm/s and the “Δ Log Pe” value ([4]; respect to propranolol) was −0.12.

Reference: publication PMC5620277, “The histone methyltransferase EZH2 as a druggable target in SHH medulloblastoma cancer stem cells” (Oncotarget, 2017)
